Laboratory results reported in patent US12331040B2 (Karyopharm Therapeutics Inc., priority 2013, dated 2025).
Like-named read-outs stand apart in the source and are kept apart here.

Assays:
Type in all cases: cell-based
[1] = test system: M24 cells; assay: MTT cell proliferation assay; settings: Homo sapiens
Procedure: (§1) The MTT cell proliferation assay was used to study the cytotoxic properties of the compounds. The assay was performed according to the method described by Roche Molecular Biochemicals, with minor modifications. The assay is based on the cleavage of the tetrazolium salt, MTT, in the presence of an electron-coupling reagent. The water-insoluble formazan salt produced must be solubilized in an additional step. Cells grown in a 96-well tissue culture plate were incubated with the MTT solution for approximately 4 hours. After this incubation period, a water-insoluble formazan dye formed. After solubilization, the formazan dye was quantitated using a scanning multi-well spectrophotometer (ELISA reader). […] The cells were seeded at 5,000-10,000 cells in each well of 96-well plate in 100 μL of fresh culture medium and were allowed to attach overnight. The stock solutions of the compounds were diluted in 100 μL cell culture medium to obtain eight concentrations of each test compound, ranging from 1 nM to 30 μM. […] All optical densities were measured at 490 nm using a Vmax Kinetic Microplate Reader (Molecular Devices). In most cases, the assay was performed in duplicate and the results were presented as a mean percent inhibition to the negative control±SE. The following formula was used to calculate the percent of inhibition: Inhibition (%)=(1−(ODo/OD))×100.
(§2) The M24 cell line is derived from human melanoma cells. The U2OS cell line is a human osteosarcoma cell line expressing wild type p53 and Rb, but lacking p16. The MM1S cell line is a multiple myeloma cell line; the parent cell line, MM.1, was established from peripheral blood of a multiple myeloma patient who had become resistant to steroid-based therapy. The RPMI8226 cell line is derived from human B lymphocyte cells. NHDF cells are normal human dermal fibroblast cells. The MRC-5 cell line is derived from normal lung tissue of a fetus. The PC3 cell line is a human prostate cancer cell line. The DU-145 cell line is a human prostate cancer cell line. The MDA-MB-231 cell line is a human breast adenocarcinoma cell line. The MDA-MB-468 cell line is a human breast carcinoma cell line. HL-60 cells are human promyelocytic leukemia cells. Hep G2 cells are human hepatocellular carcinoma cells. HEP 3B cells are human hepatocellular carcinoma cells. The DLD-1 cell line is a colorectal adenocarcinoma cell line. The HCT-15 cell line is a human colon carcinoma cell line. The Colo-205 cell line is derived from a human adenocarcinoma of the colon. The LoVo cell line is a human colon adenocarcinoma cell line.

[2] = test system: MRC-5 cells; assay: MTT cell proliferation assay; settings: Homo sapiens, MRC5; MRC-5 cell line
Procedure: as §1, §2

[3] = test system: U2OS cells; assay: MTT cell proliferation assay; settings: Homo sapiens
Procedure: as §1, §2

[4] = test system: MDA-MB-231 cells; assay: MTT cell proliferation assay; settings: Homo sapiens
Procedure: as §1, §2

[5] = test system: DU-145 cells; assay: MTT cell proliferation assay; settings: Homo sapiens
Procedure: as §1, §2

[6] = test system: MDA-MB-468 cells; assay: MTT cell proliferation assay; settings: Homo sapiens
Procedure: as §1, §2

[7] = test system: Colo-205 cells; assay: MTT cell proliferation assay; settings: Homo sapiens
Procedure: as §1, §2

[8] = test system: PC3 cells; assay: MTT cell proliferation assay; settings: Homo sapiens, PC-3
Procedure: as §1, §2

[9] = test system: HCT-15 cells; assay: MTT cell proliferation assay; settings: Homo sapiens
Procedure: as §1, §2

[10] = MTT cell proliferation assay; settings: human, MRC-5 cells (normal fetal lung cell line); MRC-5 cells; 72-hour MTT
Procedure: as §1, §2

[11] = test system: LoVo cells; assay: MTT cell proliferation assay; settings: Homo sapiens
Procedure: as §1, §2

[12] = test system: NHDF cells; assay: MTT cell proliferation assay; settings: Homo sapiens
Procedure: as §1, §2

[13] = test system: DLD-1 cells; assay: MTT cell proliferation assay; settings: Homo sapiens
Procedure: as §1, §2

[14] = test system: MM1S cells; assay: MTT cell proliferation assay; settings: Homo sapiens, MM1.S
Procedure: as §1, §2

[15] = test system: Z138 cells; assay: MTT cell proliferation assay; settings: Homo sapiens
Method in brief: (§3)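 Cytotoxicity was measured by MTT: OD490 of the solubilized formazan after roughly 4 h with MTT reagent, reported as mean percent inhibition relative to the negative control. Test compounds covered eight concentrations between 1 nM and 30 μM, added to 5,000–10,000 cells per well that had attached overnight.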

[16] = test system: MS751 cells; assay: MTT cell proliferation assay; settings: Homo sapiens
Method in brief: as §3

[17] = test system: 3T3 cells; assay: MTT cell proliferation assay; settings: Mus musculus
Method in brief: as §3

[18] = test system: HT-29 cells; assay: MTT cell proliferation assay; settings: Homo sapiens, 72-hour MTT
Procedure: as §1
Compounds 504, 510, 525 and 585 were further tested against selected solid and hematological cancer cell lines and selected normal cell lines in a 72-hour MTT cell proliferation assay.

[19] = M24 cell line, read-out: MTT Assay IC50, M24
[20] = M24 cells, 72-hour MTT, read-out: M24 MTT IC50
[21] = U2OS cell line, read-out: MTT Assay IC50, U2OS
[22] = U2OS cells, 72-hour MTT, read-out: U2OS MTT IC50
[23] = MDA-MB-231 cell line, read-out: MTT Assay IC50, MDA-MB-231
[24] = MDA-MB-231 cells, 72-hour MTT, read-out: MDA-MB-231 MTT IC50
[25] = DU-145 cell line, read-out: MTT Assay IC50, DU-145
[26] = DU-145 cells, 72-hour MTT, read-out: DU-145 MTT IC50
[27] = MDA-MB-468 cell line, read-out: MTT Assay IC50, MDA-MB-468
[28] = MDA-MB-468 cells, 72-hour MTT, read-out: MDA-MB-468 MTT IC50
[29] = Colo-205 cell line, read-out: MTT Assay IC50, Colo-205
[30] = Colo-205 cells, 72-hour MTT, read-out: Colo-205 MTT IC50
[31] = PC3 cells, 72-hour MTT, read-out: PC3 MTT IC50
[32] = HCT-15 cell line, read-out: MTT Assay IC50, HCT-15
[33] = HCT-15 cells, 72-hour MTT, read-out: HCT-15 MTT IC50
[34] = LoVo cell line, read-out: MTT Assay IC50, LoVo
[35] = LoVo cells, 72-hour MTT, read-out: LoVo MTT IC50
[36] = NHDF cell line, read-out: MTT Assay IC50, NHDF
[37] = NHDF cells, 72-hour MTT, read-out: NHDF MTT IC50
[38] = DLD-1 cell line, read-out: MTT Assay IC50, DLD-1
[39] = DLD-1 cells, 72-hour MTT, read-out: DLD-1 MTT IC50
[40] = MM1S cell line, read-out: MTT Assay IC50, MM1S
[41] = MM1S cells, 72-hour MTT, read-out: MM1S MTT IC50
[42] = Z-138, 72 h, Z-138 cells, 72-hour MTT, read-out: Z-138 MTT IC50
[43] = Z-138, Z138 cells, approximately 64-72 hours incubation, read-out: MTT Assay IC50 Z-138
[44] = MS751, 72 h, MS751 cells, 72-hour MTT, read-out: MS751 MTT IC50
[45] = MS751, MS751 cells, approximately 64-72 hours incubation, read-out: MTT Assay IC50 MS-751
[46] = NIH3T3, 72-hour MTT, read-out: 3T3 MTT IC50
[47] = NIH3T3, approximately 64-72 hours incubation, read-out: MTT Assay IC50 3T3

SMILES | IC50 [1, 19] | IC50 [1, 20] | IC50 [3, 22] | IC50 [4, 24] | IC50 [5, 26] | IC50 [6, 28] | IC50 [7, 30] | IC50 [8, 31] | IC50 [9, 33] | IC50 at 72 h [10] | IC50 [11, 35] | IC50 [12, 37] | IC50 [13, 39] | IC50 [14, 41] | IC50 [15, 42] | IC50 [15, 43] | IC50 [16, 44] | IC50 [16, 45] | IC50 [17, 46] | IC50 [17, 47] | also measured
Nc1ccc(/C=C/C(=O)NCc2cc3cc(-c4ccc(S(=O)(=O)N5CCOCC5)cc4)cc(Cl)c3o2)cn1 [Compound 504, (E)-3-(6-Aminopyridin-3-yl)-N-((7-chloro-5-(4-(morpholinosulfonyl)phenyl)benzofuran-2-yl)methyl)acrylamide] | 100 to 5000 nM | 50 nM | 40 nM | 220 nM | 80 nM | 1000 nM | 80 nM | 50 nM | 80 nM | 20 nM | 180 nM | 60 nM | 110 nM | 290 nM | 10 nM | < 100 nM | 30 nM | < 100 nM | 350 nM | 100 to 5000 nM | IC50 [2]: < 100 nM; IC50 [3, 21]: < 100 nM; IC50 [4, 23]: 100 to 5000 nM; IC50 [5, 25]: < 100 nM; IC50 [6, 27]: 100 to 5000 nM; IC50 [7, 29]: < 100 nM; IC50 ([8]; PC3 cell line, read-out: MTT Assay IC50, PC3): < 100 nM; IC50 [9, 32]: < 100 nM; IC50 [11, 34]: 100 to 5000 nM; IC50 [12, 36]: < 100 nM; IC50 [13, 38]: 100 to 5000 nM; IC50 [14, 40]: 100 to 5000 nM; IC50 [18]: 480 nM
Nc1ccc(/C=C/C(=O)NCc2cc3cc(-c4ccc(C(=O)N5CCOCC5)cc4)cc(C(F)(F)F)c3o2)cn1 [Compound 510, (E)-3-(6-aminopyridin-3-yl)-N-((5-(4-(morpholine-4-carbonyl)phenyl)-7-(trifluoromethyl)benzofuran-2-yl)methyl)acrylamide] | 100 to 5000 nM | 290 nM | 8 nM | 1410 nM | 1470 nM | 30 nM | 160 nM | 20 nM | 1270 nM | 50 nM | 230 nM | 80 nM | 950 nM | 90 nM | 100 nM | < 100 nM | 100 nM | 100 to 5000 nM | > 10000 nM | > 10000 nM | IC50 [2]: < 100 nM; IC50 [3, 21]: < 100 nM; IC50 [4, 23]: 100 to 5000 nM; IC50 [5, 25]: 100 to 5000 nM; IC50 [6, 27]: < 100 nM; IC50 [7, 29]: 100 to 5000 nM; IC50 [9, 32]: 100 to 5000 nM; IC50 [11, 34]: 100 to 5000 nM; IC50 [12, 36]: < 100 nM; IC50 [13, 38]: 100 to 5000 nM; IC50 [14, 40]: < 100 nM; IC50 [18]: 9310 nM
Nc1ccc(/C=C/C(=O)NCc2cc3cc(-c4ccc(C(=O)N5CCC(F)(F)CC5)cn4)cc(C(F)(F)F)c3o2)cn1 [Compound 585, (E)-3-(6-aminopyridin-3-yl)-N-((5-(5-(4,4-difluoropiperidine-1-carbonyl)pyridin-2-yl)-7-(trifluoromethyl)benzofuran-2-yl)methyl)acrylamide] | – | – | 60 nM | 1120 nM | 4900 nM | 200 nM | 170 nM | 140 nM | 270 nM | 130 nM | 260 nM | 5820 nM | 940 nM | 90 nM | 20 nM | < 100 nM | 100 nM | < 100 nM | > 10000 nM | > 10000 nM | –
